Measurements from patent publication US10940139B2, “Compounds that interact with the Ras superfamily for the treatment of cancers, inflammatory diseases, rasopathies, and fibrotic disease” (Shy Therapeutics LLC, priority 2017, dated 2021).

Test system: MAPK phosphorylation in PANC-1 pancreatic cancer cell line
Experiment: MAPK cell-based phosphorylation assay (cell-direct ELISA, EGF stimulation)
Conditions: Homo sapiens
How it was run: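 Cell-direct ELISA measured phospho-MAPK, with fluorescence read at 595 nm from AmpliFlu Red. Before fixation, PANC-1 cells starved overnight received 6 hours of compound (30 μM single dose or serial dilutions, 0.3% DMSO, 37° C), followed by 1.5 ng/ml EGF for 15 min.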

SMILES	IC50 [µM]
Oc1nc(-c2ccccn2)nc2c(-c3cccc4c3OCO4)csc12 [drawing 1193]	< 2
Oc1nc(-c2ccccn2)nc2c(-c3cccc(C(F)(F)F)c3)csc12 [drawing 1212]	< 2

Same assay, conditions: Homo sapiens, * = tested at 10 μM

SMILES	inhibition at 10 µM [%]
COCCCNc1nc(-c2nccn2C)nc2sc(-c3ccccc3)c(-c3ccccc3)c12 [drawing 1330]	76 to 100
COCCNc1nc(-c2nccn2C)nc2sc(-c3ccccc3)c(-c3ccccc3Cl)c12 [drawing 1340]	76 to 100
Nc1nc(-c2ccccn2)nc2scc(C(=O)O)c12 [drawing 1242]	1 to 25
Cc1sc2c(O)nc(-c3ccccn3)nc2c1-c1ccccc1 [drawing 1241]	76 to 100
COC(=O)c1nc(-c2ccccn2)nc(O)c1O [drawing 1307]	0
Cc1nn(C(C)C)cc1-c1csc2c(O)nc(-c3ccccn3)nc12 [drawing 1267]	0
COc1cc(-c2csc3c(O)nc(-c4ccccn4)nc23)cnc1C(F)(F)F [drawing 1222]	1 to 25
CC(C)c1nn(C)cc1-c1csc2c(O)nc(-c3ccccn3)nc12 [drawing 1262]	0
O=C(COCc1ccnc(O)c1)Nc1nc(-c2ccccn2)nc2sccc12 [drawing 1199]	1 to 25
Cc1cc(OC(F)F)ccc1-c1csc2c(O)nc(-c3ccccn3)nc12 [drawing 1217]	1 to 25
COCC(C)Nc1nc(-c2ccccn2)nc(C(=O)NCCCc2c[nH]cn2)c1Oc1ccccc1 (stereo not shown) [drawing 1310]	1 to 25
Oc1nc(-c2ccccn2)nc2cc(-c3ccccc3)sc12 [drawing 1322]	25 to 50
Nc1nc(-c2ccccn2)nc(C(=O)NCCc2ccncc2)c1Oc1ccccc1 [drawing 1311]	1 to 25
Cc1cc2nc(-c3ccccn3)nc(O)c2s1 [drawing 1246]	25 to 50
O=C(c1csc2c(O)nc(-c3ccccn3)nc12)N1CCNC(c2ccc(Cl)cc2)C1 (stereo not shown) [drawing 1285]	0
O=C(CCc1nn[nH]n1)Nc1nc(-c2ccccn2)nc2sccc12 [drawing 1227]	25 to 50
Cn1cnc(-c2nc(O)c3scc(-c4cccc(C(F)(F)F)c4)c3n2)c1 [drawing 1364]	1 to 25
COCCNc1nc(-c2nccn2C)nc2sc(-c3ccncc3)c(-c3ccccc3)c12 [drawing 1342]	0
Oc1nc(-c2ccccn2)nc2c(-c3ccccc3OC3CCCCC3)csc12 [drawing 1205]	1 to 25
Cn1cnc(-c2nc(O)c3c(-c4ccccc4)c(-c4ccncc4)sc3n2)c1 [drawing 1288]	25 to 50
Cc1c(-c2csc3c(O)nc(-c4ccccn4)nc23)cnn1C [drawing 1266]	0
Oc1nc(-c2ccccn2)nc2c(-c3cncc(C(F)F)c3)csc12 [drawing 1268]	0
CCN(CC)CCOc1nc(-c2nccn2C)nc2sc(-c3ccccc3)c(-c3ccccc3)c12 [drawing 1333]	76 to 100

SMILES	inhibition at 10 µM [%]
Nc1nc(O)c2sc(-c3cccc(C(=O)NCc4cccc(O)n4)c3)cc2n1 [drawing 1306]	0
Cc1cnccc1-c1csc2c(O)nc(-c3ccccn3)nc12 [drawing 1225]	1 to 25
Cc1sc2c(O)nc(-c3nccn3C)nc2c1-c1cccc(OC(F)(F)F)c1	25 to 50
Cn1cnc(-c2nc(O)c3scc(-c4cccc(OC(F)(F)F)c4)c3n2)c1 [drawing 1366]	1 to 25
COCCNc1nc(-c2nccn2C)nc2sc(-c3cccc(OC)c3)c(-c3ccccc3)c12 [drawing 1346]	76 to 100
Oc1nc(-c2ccccn2)nc2c(-c3ccc(OC4CCOCC4)cc3)csc12 [drawing 1206]	1 to 25
COCCNc1nc(-c2cn(C)cn2)nc2sc(-c3ccccc3)c(-c3ccccc3)c12 [drawing 1343]	76 to 100
Cc1cnc(-c2ccccn2)nc1NC(=O)Cc1ccc2cnccc2c1 [drawing 1198]	25 to 50
Oc1nc(-c2ccccn2)nc2c(-c3cccc4c3OCO4)csc12 [drawing 1193]	76 to 100
Cn1ccnc1-c1nc(NCCCO)c2c(-c3ccccc3)c(-c3ccccc3)sc2n1 [drawing 1339]	1 to 25
COC(=O)c1cc2nc(-c3ccccn3)nc(O)c2s1 [drawing 1243]	25 to 50
Oc1nc(-c2ccccn2)nc2c(-c3cccc(C(F)(F)F)c3)csc12 [drawing 1212]	76 to 100
CCOCCOc1nc(-c2nccn2C)nc2sc(-c3ccccc3)c(-c3ccccc3)c12 [drawing 1332]	0
CC(C)Oc1ccc(-c2c(-c3ccccc3)sc3c(O)nc(-c4nccn4C)nc23)cc1F [drawing 1371]	25 to 50
Oc1nc(-c2ccccn2)nc2c(C3CCCCC3)csc12 [drawing 1272]	25 to 50
Cn1ccnc1-c1nc(O)c2sc(-c3ccccc3)c(-c3ccccc3Cl)c2n1 [drawing 1355]	51 to 75
Oc1nc(-c2ccccn2)nc(Oc2cccc(C(F)(F)F)c2)c1O [drawing 1318]	1 to 25
Cn1ccnc1-c1nc(O)c2scc(-c3cccc(Cl)c3)c2n1 [drawing 1377]	25 to 50
COC1CCN(c2nc(-c3nccn3C)nc3sc(-c4ccccc4)c(-c4ccccc4)c23)C1 (stereo not shown) [drawing 1331]	76 to 100
Oc1nc(-c2ccccn2)nc2c(-c3ccc(OC4CCCC4)cc3)csc12 [drawing 1203]	25 to 50
Oc1nc(-c2ccccn2)nc2c(-c3ccc(C4CCC4)cc3)csc12 [drawing 1204]	51 to 75
COc1cnc(CNC(=O)c2cc3nc(-c4ccccn4)nc(O)c3s2)[nH]c1=O [drawing 1281]	51 to 75

Same assay, conditions: Homo sapiens, at 30 μM

SMILES	inhibition at 30 µM [%]
Oc1nc(-c2ccccn2)nc2[nH]cnc12 [drawing 1076]	1 to 25
N#Cc1ccc(COCC(=O)Nc2nc(-c3ccccn3)nc3sccc23)cc1 [drawing 1161]	1 to 25
O=C(Nc1nnc(-c2ccccn2)[nH]1)c1ccc2c(c1)CCO2 [drawing 995]	1 to 25
CN(CC(=O)N1CCOCC1)c1nc(-c2ccccn2)nc2scc(-c3ccccc3)c12 [drawing 1094]	1 to 25
CC(OCc1ccccc1)C(=O)Nc1nnc(-c2ccccn2)[nH]1 (stereo not shown) [drawing 1016]	1 to 25
COc1ccc(CCC(=O)N2CCCc3c(O)nc(-c4ccccn4)nc32)cc1 [drawing 1058]	25 to 50
c1ccc(-c2csc3nc(-c4ccccn4)nc(N4CCN(Cc5cccnc5)CC4)c23)cc1 [drawing 1087]	1 to 25
O=C(CCc1c[nH]c2ccccc12)Nc1nnc(-c2ccccn2)[nH]1 [drawing 1001]	25 to 50
Cc1ccc(CC(=O)Nc2nnc(-c3ccccn3)[nH]2)cn1 [drawing 1012]	1 to 25
CCN(CC)C(=O)CN1CCN(c2nc(-c3ccccn3)nc3scc(-c4ccccc4)c23)CC1 [drawing 1098]	25 to 50
O=c1nc(-c2ccccn2)[nH]c2scc(-c3ccccc3Cl)c12 [drawing 1036]	25 to 50
O=C(c1csc2c(O)nc(-c3ccccn3)nc12)N1CCc2ccccc2CC1 [drawing 1072]	25 to 50
O=C(Nc1nc(-c2ccccn2)cs1)c1cccnc1 [drawing 1032]	1 to 25
Oc1nc(-c2ccccn2)nc2c(C3CCNCC3)csc12 [drawing 1116]	1 to 25
CC(c1ccccc1)N1CCN(C(=O)c2csc3c(O)nc(-c4ccccn4)nc23)CC1 (stereo not shown) [drawing 1166]	1 to 25
O=C(c1csc2c(O)nc(-c3ccccn3)nc12)N1CCN(c2ccc(F)cc2F)CC1 [drawing 1142]	1 to 25
O=C(c1csc2c(O)nc(-c3ccccn3)nc12)N1CCN(c2ccccc2Cl)CC1 [drawing 1119]	1 to 25
Nc1nc(O)c2nc[nH]c2n1 [drawing 1112]	1 to 25
O=C(CN1CCN(c2nc(-c3ccccn3)nc3scc(-c4ccccc4)c23)CC1)N1CCCC1 [drawing 1104]	1 to 25

SMILES	inhibition at 30 µM [%]
O=c1nc(-c2ccccn2)[nH]c2c1sc1ccccc12 [drawing 1038]	76 to 100
FC(F)(F)c1csc2nc(-c3ccccn3)nc(N3CCOCC3)c12 [drawing 1132]	1 to 25
CC(O)CNc1nc(-c2ccccn2)nc2scc(-c3ccccc3)c12 (stereo not shown) [drawing 1042]	25 to 50
O=C(Nc1nnc(-c2ccccn2)[nH]1)C1CC(=O)N(Cc2cccc(C(F)(F)F)c2)C1 (stereo not shown) [drawing 1024]	25 to 50
COC(=O)c1cc(NCC2NC(CC(C)C)=NO2)ccc1Cl (stereo not shown)	1 to 25
O=C(Nc1nnc(-c2ccccn2)[nH]1)C1CCCN(c2ncccn2)C1 (stereo not shown) [drawing 1015]	1 to 25
CC(C)NC(=O)Nc1cccc(C(=O)Nc2nnc(-c3ccccn3)[nH]2)c1 [drawing 993]	1 to 25
O=C(CCc1cnn(-c2ccccc2)c1)Nc1nnc(-c2ccccn2)[nH]1 [drawing 992]	25 to 50
COc1ccc(CC(=O)Nc2nnc(-c3ccccn3)[nH]2)cc1 [drawing 1006]	1 to 25
Nc1nc(-c2ccccn2)nc2sccc12 [drawing 1180]	1 to 25
CS(=O)(=O)CCCNC(=O)c1csc2nc(-c3ccccn3)nc(N3CCOCC3)c12 [drawing 1170]	25 to 50
OC1CCN(c2nc(-c3ccccn3)nc3scc(-c4ccccc4)c23)CC1 [drawing 1103]	1 to 25
CNC(=O)CN1CCN(c2nc(-c3ccccn3)nc3scc(-c4ccccc4)c23)CC1 [drawing 1092]	1 to 25
Oc1nc(-c2ccccn2)nc2c1ncn2-c1ccccn1 [drawing 1077]	1 to 25
O=C(Nc1nnc(-c2ccccn2)[nH]1)C1CCCN(c2cnccn2)C1 (stereo not shown) [drawing 1019]	1 to 25
O=C(c1ccc(=O)[nH]n1)N1CCCc2c(O)nc(-c3ccccn3)nc21 [drawing 1059]	1 to 25
COCCN(CCOC)c1nc(-c2ccccn2)nc2scc(C(=O)NCCc3cnc(O)nc3)c12 [drawing 1171]	25 to 50
O=C(Nc1nc(-c2ccccn2)cs1)c1ccncc1 [drawing 1034]	25 to 50
O=C(CCNC(=O)c1ccco1)Nc1nnc(-c2ccccn2)[nH]1 [drawing 1011]	1 to 25
